Measurements from patent US20210171576A1, “METHODS FOR TREATING CANCER WITH ACYLDEPSIPEPTIDE ANALOGS” (priority 2018, published 2021).
Where a SMILES comes first, the peptide text is derived from it. Bridges are numbered along the chain shown (N, C = ends). [ ]: non-standard residue; d: D form. The star is where a group is joined. Octatrienoyl(2E,4E,6E) = C/C=C/C=C/C=C/C(=O)*; Phe(3,5-F2) = N[C@@H](Cc1cc(F)cc(F)c1)C(=O)O; Hexadienoyl(2E,4E) = C/C=C/C=C/C(=O)*; Pro(4R-Me) = C[C@H]1CN[C@H](C(=O)O)C1; Heptenoyl(2E) = CCCC/C=C/C(=O)*; aThr = C[C@H](O)[C@H](N)C(=O)O; Pip = O=C(O)[C@@H]1CCCCN1; NMeA = CN[C@@H](C)C(=O)O; Cbz = O=C(OCc1ccccc1)*; X3 = O=C(/C=C/CC1CC1)*; X8 = CCC/C=C/C(=O)*; X9 = CCCCC#CC(=O)*

Target: T1, human mitochondrial CIpP (HsCIpP) (Homo sapiens, UniProt Q16740)
T1 construct: made in house; host or cells: E. coli SG1146 (BL21(DE3) ΔclpP::cat)
Experiment: Screen of ADEP analogs against HsCIpP: relative degradation (RD) index, casein-FITC degradation relative to E. coli CIpAP
Assay type: biochemical
Design: key: casein-FITC degradation by HsClpP relative to EcClpAP
Details: for Hs RD1: RD value at 1 μM of the ADEP analog; for Hs RD5: RD value at 5 μM of the ADEP analog; for Hs RD25: RD value at 25 μM of the ADEP analog, measure of ability to activate HsCIpP
From the text: Structural analogs of acyldepsipeptide (ADEP) (Goodreid et al., 2016) that were previously developed as potential antibiotics against bacterial CIpP were screened and assessed for their ability to activate and dysregulate the protease activity of HsCIpP, by measuring their relative degradation (RD) index. Note that ADEP-28 was also previously reported by Carney et al. (2014). Details of the experimental protocol have been described in Leung et al., 2011. The RD index is defined as follows: […]
Δφ is the change in fluorescence after 6 hr of starting the reaction measured using 485 nm excitation and 535 nm emission, which primarily detects the signal from casein-FITC. E. coli CIpAP was used as a benchmark for maximum CIpP proteolytic activity. The CIpP in the numerator can be from any other organism. RD25 measurements refer to the measurement in the presence of 25 μM compound. All ADEP analogs were first screened at 25 μM, and their RD25 scores were calculated using the above formula and method as described in Leung et al., 2011 (FIG. 1A). Those that achieved RD25≥0.87 were screened a second time at 5 μM, followed by calculation of their RD5 scores. The top analogs with RD5≥0.74 were screened a third time at 1 μM, followed by calculation of their RD1 scores (FIG. 1B).
To identify ADEP analogs that allow HsCIpP to degrade folded proteins independent of HsCIpX+ATP (i.e., that activate or dysregulate HsCIpP), the inventors employed the in vitro screening method that was used for identifying small molecule activators of Escherichia coli CIpP (EcCIpP) (Leung et al., 2011). In this approach, the ability of HsCIpP to degrade FITC-labeled casein (casein-FITC) was measured and compared to the ability of EcCIpAP to degrade casein-FITC. This is quantitatively expressed as relative degradation (RD) index (Leung et al., 2011).

T1 sequence (Q16740 57-277): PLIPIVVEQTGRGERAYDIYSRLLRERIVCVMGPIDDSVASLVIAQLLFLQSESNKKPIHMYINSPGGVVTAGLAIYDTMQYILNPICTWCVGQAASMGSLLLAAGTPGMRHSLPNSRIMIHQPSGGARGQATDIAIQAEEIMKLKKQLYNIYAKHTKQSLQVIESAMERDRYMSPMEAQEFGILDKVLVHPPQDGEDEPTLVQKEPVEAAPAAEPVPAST

Structure (SMILES)	Hs RD1	Hs RD5	Hs RD25
CCCC/C=C/C(=O)N[C@@H](Cc1ccccc1)C(=O)N[C@H]1COC(=O)[C@@H]2CCCN2C(=O)[C@H](C)NC(=O)[C@H](C)N(C)C(=O)[C@@H]2CCCN2C1=O [ADEP-01] ({Heptenoyl(2E)}-FSP[NMeA]AP; ester 2-C)	0.22	0.70	0.96
C/C=C/C=C/C(=O)N[C@@H](Cc1ccccc1)C(=O)N[C@H]1COC(=O)[C@@H]2C[C@@H](C)CN2C(=O)[C@H](C)NC(=O)[C@H](C)N(C)C(=O)[C@@H]2CCCN2C1=O [ADEP-03] ({Hexadienoyl(2E,4E)}-FSP[NMeA]A[Pro(4R-Me)]; ester 2-C)			0.66
C/C=C/C=C/C=C/C(=O)N[C@@H](Cc1ccccc1)C(=O)N[C@H]1COC(=O)[C@@H]2C[C@@H](C)CN2C(=O)[C@H](C)NC(=O)[C@H](C)N(C)C(=O)[C@@H]2CCCN2C1=O [ADEP-05] ({Octatrienoyl(2E,4E,6E)}-FSP[NMeA]A[Pro(4R-Me)]; ester 2-C)		0.69	0.98
C/C=C/C=C/C=C/C(=O)N[C@@H](Cc1ccccc1)C(=O)N[C@H]1COC(=O)[C@@H]2CCCN2C(=O)[C@H](C)NC(=O)[C@H](C)N(C)C(=O)[C@@H]2CCCN2C1=O [ADEP-08] ({Octatrienoyl(2E,4E,6E)}-FSP[NMeA]AP; ester 2-C)		0.52	0.97
CCC/C=C/C(=O)N[C@@H](Cc1ccccc1)C(=O)N[C@H]1COC(=O)[C@@H]2CCCN2C(=O)[C@H](C)NC(=O)[C@H](C)N(C)C(=O)[C@@H]2CCCN2C1=O [ADEP-09] (X8-FSP[NMeA]AP; ester 2-C)			0.76
CCCCC#CC(=O)N[C@@H](Cc1ccccc1)C(=O)N[C@H]1COC(=O)[C@@H]2CCCN2C(=O)[C@H](C)NC(=O)[C@H](C)N(C)C(=O)[C@@H]2CCCN2C1=O [ADEP-12] (X9-FSP[NMeA]AP; ester 2-C)			0.36
C[C@@H]1C[C@H]2C(=O)OC[C@H](NC(=O)[C@H](Cc3ccccc3)NC(=O)OCc3ccccc3)C(=O)N3CCC[C@H]3C(=O)N(C)[C@@H](C)C(=O)N[C@@H](C)C(=O)N2C1 [ADEP-16] (Cbz-FSP[NMeA]A[Pro(4R-Me)]; ester 2-C)			0.06

Next, values leading:

Hs RD1	Hs RD5	Hs RD25	Structure (SMILES)
0.52	0.88	1.08	CCCC/C=C/C(=O)N[C@H](Cc1ccccc1)C(=O)N[C@H]1COC(=O)[C@@H]2CCCN2C(=O)[C@H](C)NC(=O)[C@@H]2CCCCN2C(=O)[C@@H]2CCCN2C1=O [ADEP-02]
0.64	0.94	1.05	CCCC/C=C/C(=O)N[C@@H](Cc1cc(F)cc(F)c1)C(=O)N[C@H]1COC(=O)[C@@H]2C[C@@H](C)CN2C(=O)[C@H](C)NC(=O)[C@H](C)N(C)C(=O)[C@@H]2CCCN2C1=O [ADEP-06] ({Heptenoyl(2E)}-[Phe(3,5-F2)]SP[NMeA]A[Pro(4R-Me)]; ester 2-C)
0.44	0.85	1.07	CCCC/C=C/C(=O)N[C@@H](Cc1ccccc1)C(=O)N[C@H]1COC(=O)[C@@H]2C[C@@H](C)CN2C(=O)[C@H](C)NC(=O)[C@@H]2CCCCN2C(=O)[C@@H]2CCCN2C1=O [ADEP-10]
0.59	0.91	1.02	C[C@@H]1C[C@H]2C(=O)O[C@@H](C)[C@H](NC(=O)[C@H](Cc3cc(F)cc(F)c3)NC(=O)/C=C/CC3CC3)C(=O)N3CCC[C@H]3C(=O)N3CCCC[C@H]3C(=O)N[C@@H](C)C(=O)N2C1 [ADEP-13] (X3-[Phe(3,5-F2)][aThr]P[Pip]A[Pro(4R-Me)]; ester 2-C)
0.58	0.92	1.05	CCCC/C=C/C(=O)N[C@@H](Cc1cc(F)cc(F)c1)C(=O)N[C@H]1COC(=O)[C@@H]2C[C@@H](C)CN2C(=O)[C@H](C)NC(=O)[C@@H]2CCCN2C(=O)[C@@H]2CCCN2C1=O [ADEP-15]
